According to publication PMC6630832, “3-Vinylazetidin-2-Ones: Synthesis, Antiproliferative and Tubulin Destabilizing Activity in MCF-7 and MDA-MB-231 Breast Cancer Cells” (Pharmaceuticals, 2019):

How the values were obtained:
[1] = system: human MCF-7 breast cancer cells; test: Cell viability (Alamar Blue) antiproliferative assay in MCF-7 cells; format: cell-based; conditions: Homo sapiens, MCF7, 72 h, human MCF-7 breast cancer cells; 72 h; mean ± SEM; read-out: Antiproliferative Activity IC50
Experimental: The human breast carcinoma cell line MCF-7, was purchased from the European Collection of Animal Cell Cultures (ECACC) and was cultured in Eagle’s minimum essential medium with 10% fetal bovine serum, 2 mM L-glutamine and 100 μg/mL penicillin/streptomycin. The medium was supplemented with 1% non-essential amino acids. The human breast carcinoma cell line MDA-MB-231 was purchased from the European Collection of Animal Cell Cultures (ECACC). MDA-MB-231 cells were maintained in Dulbecco’s modified Eagle’s medium (DMEM) supplemeted with 10% (v/v) fetal bovine serum, 2 mM L-glutamine and 100 μg/mL penicillin/streptomycin (complete medium). All media contained 100 U/mL penicillin and 100 μg/mL streptomycin. Triple negative breast cancer Hs578T cells and its invasive variant Hs578Ts(i)8 were obtained as a kind gift from Dr. Susan McDonnell, School of Chemical and Bioprocess Engineering, University College Dublin and were cultured in Dulbecco’s Modified Eagle’s Media (DMEM) with GlutaMAX^TM-I, with the same supplement as for MDA-MB-231 cells in the absence of non-essential amino acids. HEK-293T normal epithelial embryonic kidney cells were cultured in Dulbecco’s Modified Eagle’s Medium (DMEM) with GlutaMAX^TM-I in the absence of non-essential amino acids. K562 and HL-60 cells were originally obtained from the European Collection of Cell Cultures (Salisbury, UK).The K562 cells were derived from a patient in the blast crisis stage of CML HL-60 cells were derive from a patient with acute myeloid leukaemia. Cells were cultured in RPMI-1640 Glutamax medium supplemented with 10% FCS media, and 100 μg/mL penicillin/streptomycin. Cells were maintained at 37 °C in 5% CO2 in a humidified incubator. All cells were sub-cultured three times/week (adherent cells by trypsinisation).
Cells were seeded at a density of 5 × 10^3 cells/well (MCF-7), in triplicate in 96-well plates. After 24 h, cells were then treated with either medium alone, vehicle [1% ethanol (v/v)] or with serial dilutions of CA-4 or β-lactam analogue. Cell viability for MCF-7 and MDA-MB-231 was analysed using the Alamar Blue assay (Invitrogen Corp, Thermo Fisher Scientific, 168 Third Avenue, Waltham, MA, USA) according to the manufacturer’s instructions. After 72 h, Alamar Blue [10% (v/v)] was added to each well and plates were incubated for 3–5 h at 37 °C in the dark. Fluorescence was read using a 96-well fluorimeter with excitation at 530 nm and emission at 590 nm. Results were expressed as percentage viability relative to vehicle control (100%). Dose response curves were plotted and IC50 values (concentration of drug resulting in 50% reduction in cell survival) were obtained using the commercial software package Prism (GraphPad Software, Inc., 2365 Northside, Suite 560, San Diego, CA, USA). Experiments were performed in triplicate on at least three separate occasions.

SMILES | IC50 [1] [µM] | melting point [°C]
COc1ccc(C2CC(=O)N2c2cc(OC)c(OC)c(OC)c2)cc1O (stereo not shown) [Compound 9c, 4-(3-Hydroxy-4-methoxyphenyl)-1-(3,4,5-trimethoxyphenyl)-azetidin-2-one] | 0.017 | 78 to 80
C=CC1C(=O)N(c2cc(OC)c(OC)c(OC)c2)C1c1cccc2ccccc12 (stereo not shown) [Compound 7m, 4-Naphthalen-1-yl-1-(3,4,5-trimethoxyphenyl)-3-vinylazetidin-2-one] | 1.74 ± 0.17 | 121 to 122
C=CC1C(=O)N(c2cc(OC)c(OC)c(OC)c2)C1c1ccc(OCc2ccccc2)cc1 (stereo not shown) [Compound 7l, 4-(4-Benzyloxyphenyl)-1-(3,4,5-trimethoxyphenyl)-3-vinylazetidin-2-one] | 8.02 ± 0.63 | 148 to 149
COc1ccc(C2C(C(C)=O)C(=O)N2c2cc(OC)c(OC)c(OC)c2)cc1O (stereo not shown) [Compound 11, 3-Acetyl-4-(3-hydroxy-4-methoxyphenyl)-1-(3,4,5-trimethoxyphenyl)azetidin-2-one] | 0.414 ± 0.132 | –
C=CC1C(=O)N(c2cc(OC)c(OC)c(OC)c2)C1c1ccccc1 (stereo not shown) [Compound 7f, 4-Phenyl-1-(3,4,5-trimethoxyphenyl)-3-vinylazetidin-2-one] | 4.03 ± 0.42 | 109 to 111
COc1ccc(C2C(C(C)O)C(=O)N2c2cc(OC)c(OC)c(OC)c2)cc1O (stereo not shown) [Compound 10a, 3-(1-Hydroxyethyl)-4-(3-hydroxy-4-methoxyphenyl)-1-(3,4,5-trimethoxyphenyl) azetidin-2-one] | 0.065 ± 0.015 | –
COc1ccc(C2C(C(O)CO)C(=O)N2c2cc(OC)c(OC)c(OC)c2)cc1O (stereo not shown) [Compound 13, 3-(1,2-Dihydroxyethyl)-4-(3-hydroxy-4-methoxyphenyl)-1-(3,4,5-trimethoxyphenyl) azetidin-2-one] | 0.069 ± 0.029 | –
C=CC1C(=O)N(c2cc(OC)c(OC)c(OC)c2)C1c1ccc(OCCCC)cc1 (stereo not shown) [Compound 7j, 4-(4-Butoxyphenyl)-1-(3,4,5-trimethoxyphenyl)-3-vinylazetidin-2-one] | 14 ± 1.81 | 100 to 102
C=CC1C(=O)N(c2cc(OC)c(OC)c(OC)c2)C1c1ccc(OC)c([N+](=O)[O-])c1 (stereo not shown) [Compound 7p, 4-(4-Methoxy-3-nitrophenyl)-1-(3,4,5-trimethoxyphenyl)-3-vinylazetidin-2-one] | 0.618 ± 0.1 | –
C=CC1C(=O)N(c2ccc(Cl)cc2)C1c1cc(OC)c(OC)c(OC)c1 (stereo not shown) [Compound 8b, 4-(3,4,5-Trimethoxyphenyl)-1-(4-chlorophenyl)-3-vinylazetidin-2-one] | 29.2 ± 1.14 | 131 to 133
C=CC1C(=O)N(c2cc(OC)c(OC)c(OC)c2)C1c1ccc(N(C)C)cc1 (stereo not shown) [Compound 7e, 4-(4-Dimethylaminophenyl)-1-(3,4,5-trimethoxyphenyl)-3-vinylazetidin-2-one] | 4.05 ± 0.45 | –
C=CC1C(=O)N(c2cc(OC)c(OC)c(OC)c2)C1c1ccc(OC)c(NC(=O)C(C)N)c1 (stereo not shown) [Compound 15, 2-Amino-N-(2-methoxy-5-(1-(3,4,5-trimethoxyphenyl)-4-oxo-3-vinylazetidin-2-yl)phenyl)propanamide] | 3.25 ± 0.27 | –
C=CC1C(=O)N(c2cc(OC)c(OC)c(OC)c2)C1c1ccc(F)cc1 (stereo not shown) [Compound 7a, 4-(4-Fluorophenyl)-1-(3,4,5-trimethoxyphenyl)-3-vinylazetidin-2-one] | 8.31 ± 1.4 | 147 to 149
C=CC1C(=O)N(c2cc(OC)c(OC)c(OC)c2)C1c1ccc(Oc2ccccc2)cc1 (stereo not shown) [Compound 7k, 4-(4-Phenoxyphenyl)-1-(3,4,5-trimethoxyphenyl)-3-vinylazetidin-2-one] | 57 ± 3.72 | 128 to 130
C=CC1C(=O)N(c2cc(OC)c(OC)c(OC)c2)C1c1ccc(Br)cc1 (stereo not shown) [Compound 7c, 4-(4-Bromophenyl)-1-(3,4,5-trimethoxyphenyl)-3-vinylazetidin-2-one] | 0.445 ± 0.07 | –
C/C=C/C(O)C1C(=O)N(c2cc(OC)c(OC)c(OC)c2)C1c1ccc(OC)cc1 (stereo not shown) [Compound 10b, 3-((E)-1-Hydroxybut-2-enyl)-1-(3,4,5-trimethoxyphenyl)-4-(4-methoxyphenyl) azetidin-2-one] | 0.292 ± 0.05 | 143 to 144
C=CC1C(=O)N(c2cc(OC)c(OC)c(OC)c2)C1c1ccc(C)cc1 (stereo not shown) [Compound 7g, 4-p-Tolyl-1-(3,4,5-trimethoxyphenyl)-3-vinylazetidin-2-one] | 0.355 ± 0.03 | 106 to 107

Further lines, results first:

IC50 [1] [µM] | melting point [°C] | SMILES
> 50 | 104 to 106 | C=CC1C(=O)N(c2ccc(SC)cc2)C1c1cc(OC)c(OC)c(OC)c1 (stereo not shown) [Compound 8k, 1-(4-(Methylthio)phenyl)-4-(3,4,5-trimethoxyphenyl)-3-vinylazetidin-2-one]
0.467 ± 0.000253 | – | C=CC(C)(O)C1C(=O)N(c2cc(OC)c(OC)c(OC)c2)C1c1ccc(OC)c(O)c1 (stereo not shown) [Compound 10h, 4-(3-Hydroxy-4-methoxy-phenyl)-3-(1-hydroxy-1-methylallyl)-1-(3,4,5-trimethoxy-phenyl)-azetidin-2-one]
65.1 ± 5.55 | – | C=CC1C(=O)N(c2ccc(OC)cc2)C1c1cc(OC)c(OC)c(OC)c1 (stereo not shown) [Compound 8i, 4-(3,4,5-Trimethoxyphenyl)-1-(4-methoxyphenyl)-3-vinylazetidin-2-one]
0.288 ± 0.076 | – | C=CC(O)C1C(=O)N(c2cc(OC)c(OC)c(OC)c2)C1c1ccc(OC)c(O)c1 (stereo not shown) [Compound 10g, 4-(3-Hydroxy-4-methoxyphenyl)-3-(1-hydroxyallyl)-1-(3,4,5-trimethoxyphenyl) azetidin-2-one]
1.07 ± 0.14 | – | C=CC1C(=O)N(c2ccc(F)cc2)C1c1cc(OC)c(OC)c(OC)c1 (stereo not shown) [Compound 8a, 4-(3,4,5-Trimethoxyphenyl)-1-(4-fluorophenyl)-3-vinylazetidin-2-one]
4.02 ± 0.64 | 223 to 224 | C=CC1C(=O)N(c2ccc(NC(C)=O)cc2)C1c1cc(OC)c(OC)c(OC)c1 (stereo not shown) [Compound 8j, N-(4-(2-(3,4,5-Trimethoxyphenyl)-4-oxo-3-vinylazetidin-1-yl)phenyl)acetamide]
43.1 ± 2.16 | – | C=CC1C(=O)N(c2ccc(C)cc2)C1c1cc(OC)c(OC)c(OC)c1 (stereo not shown) [Compound 8g, 4-(3,4,5-Trimethoxyphenyl)-1-p-tolyl-3-vinylazetidin-2-one]
0.537 ± 0.08 | – | COc1ccc(C2C(C(O)/C=C/c3ccccc3)C(=O)N2c2cc(OC)c(OC)c(OC)c2)cc1 (stereo not shown) [Compound 10e, 3-((E)-1-Hydroxy-3-phenylallyl)-1-(3,4,5-trimethoxyphenyl)-4-(4-methoxyphenyl) azetidin-2-one]
50.5 ± 4.25 | 150 to 151 | C=CC1C(=O)N(c2ccccc2)C1c1cc(OC)c(OC)c(OC)c1 (stereo not shown) [Compound 8f, 4-(3,4,5-Trimethoxyphenyl)-1-phenyl-3-vinylazetidin-2-one]
59.1 ± 4.16 | – | C=CC1C(=O)N(c2ccc([N+](=O)[O-])cc2)C1c1cc(OC)c(OC)c(OC)c1 (stereo not shown) [Compound 8d, 4-(3,4,5-Trimethoxyphenyl)-1-(4-nitrophenyl)-3-vinylazetidin-2-one]
10.4 ± 0.87 | 120 to 122 | C=CC1C(=O)N(c2ccc(Br)cc2)C1c1cc(OC)c(OC)c(OC)c1 (stereo not shown) [Compound 8c, 4-(3,4,5-Trimethoxyphenyl)-1-(4-bromophenyl)-3-vinylazetidin-2-one]
36.4 ± 2.13 | 110 to 112 | C=CC1C(=O)N(c2ccc(CC)cc2)C1c1cc(OC)c(OC)c(OC)c1 (stereo not shown) [Compound 8h, 4-(3,4,5-Trimethoxyphenyl)-1-(4-ethylphenyl)-3-vinylazetidin-2-one]
68.8 ± 3.63 | 172 to 174 | C=CC1C(=O)N(c2ccc(C(C)(C)C)cc2)C1c1cc(OC)c(OC)c(OC)c1 (stereo not shown) [Compound 8e, 4-(3,4,5-Trimethoxyphenyl)-1-(4-tert-butylphenyl)-3-vinylazetidin-2-one]
